Earlier results on one compound are cited in patent publication US9050341B2, “Methods of treating drug resistant and other tumors by administering 6,7-dialkoxy quinazoline derivatives” (NATCO PHARMA LIMITED, priority 2009, dated 2015).

Counter-ions that a name gives are not always drawn.

For the data set the following is noted: beagle dogs; source not stated; cited from earlier work.

As to `C#Cc1cccc(Nc2ncnc3cc(OCCOC)c(OCCOC)cc23)c1` [Erlotinib HCl, N-(3-Ethylnylphenyl)-6,7-bis(2-methoxyethoxy)-4-quinazolinamine], the “no observed adverse effect level (NOAEL), corresponding value” is listed as 5 mg/kg b.wt/day.
